Assay: xn = mol fraction of the nth substance listed
Conditions: 101 kPa, Liquid, Vibrating tube method

CC(C)(C)O [2-methylpropan-2-ol] + O
Conditions | mass density [kg/m3]
274.15 K, x1 = 0.00089 | 999.21
274.15 K, x1 = 0.00146 | 998.81
274.15 K, x1 = 0.00269 | 997.91
274.15 K, x1 = 0.00403 | 997.02
274.15 K, x1 = 0.00513 | 996.3
274.15 K, x1 = 0.00761 | 994.82
274.15 K, x1 = 0.01051 | 993.19
274.15 K, x1 = 0.01405 | 991.42
274.15 K, x1 = 0.01793 | 989.78
274.15 K, x1 = 0.02241 | 988.11
274.15 K, x1 = 0.03005 | 985.71
274.15 K, x1 = 0.04242 | 982.79
274.15 K, x1 = 0.08929 | 966.2
275.15 K, x1 = 0.00089 | 999.25
275.15 K, x1 = 0.00146 | 998.85
275.15 K, x1 = 0.00269 | 997.96
275.15 K, x1 = 0.00403 | 997.06
275.15 K, x1 = 0.00513 | 996.34
275.15 K, x1 = 0.00761 | 994.84
275.15 K, x1 = 0.01051 | 993.21
275.15 K, x1 = 0.01405 | 991.44
275.15 K, x1 = 0.01793 | 989.78
275.15 K, x1 = 0.02241 | 988.08
275.15 K, x1 = 0.03005 | 985.63
275.15 K, x1 = 0.04242 | 982.59
275.15 K, x1 = 0.08929 | 965.24
276.15 K, x1 = 0.00089 | 999.28
276.15 K, x1 = 0.00146 | 998.89
276.15 K, x1 = 0.00269 | 997.99
276.15 K, x1 = 0.00403 | 997.09
276.15 K, x1 = 0.00513 | 996.36
276.15 K, x1 = 0.00761 | 994.86
276.15 K, x1 = 0.01051 | 993.23
276.15 K, x1 = 0.01405 | 991.43
276.15 K, x1 = 0.01793 | 989.76
276.15 K, x1 = 0.02241 | 988.02
276.15 K, x1 = 0.03005 | 985.53
276.15 K, x1 = 0.04242 | 982.37
276.15 K, x1 = 0.08929 | 964.42
277.15 K, x1 = 0.00089 | 999.29
277.15 K, x1 = 0.00146 | 998.9
277.15 K, x1 = 0.00269 | 998.01
277.15 K, x1 = 0.00403 | 997.1
277.15 K, x1 = 0.00513 | 996.37
277.15 K, x1 = 0.00761 | 994.85
277.15 K, x1 = 0.01405 | 991.42
278.15 K, x1 = 0.00089 | 999.28
278.15 K, x1 = 0.00146 | 998.89
278.15 K, x1 = 0.00269 | 998.01
278.15 K, x1 = 0.00403 | 997.1
278.15 K, x1 = 0.00513 | 996.37
278.15 K, x1 = 0.00761 | 994.85
278.15 K, x1 = 0.01051 | 993.21
278.15 K, x1 = 0.01405 | 991.41
278.15 K, x1 = 0.01793 | 989.68
278.15 K, x1 = 0.02241 | 987.87
278.15 K, x1 = 0.0248 | 986.88
278.15 K, x1 = 0.03005 | 985.29
278.15 K, x1 = 0.03494 | 983.86
278.15 K, x1 = 0.04241 | 981.87
278.15 K, x1 = 0.04242 | 981.89
278.15 K, x1 = 0.05218 | 979.23
278.15 K, x1 = 0.05887 | 977
278.15 K, x1 = 0.06973 | 972.66
278.15 K, x1 = 0.08929 | 962.87
278.15 K, x1 = 0.1125 | 951.21
278.15 K, x1 = 0.1566 | 929.91
278.15 K, x1 = 0.208 | 910.57
278.15 K, x1 = 0.2408 | 899.29
278.15 K, x1 = 0.3023 | 882.17
278.15 K, x1 = 0.3451 | 872.16
278.15 K, x1 = 0.4045 | 860.22
278.15 K, x1 = 0.4225 | 857.05
278.15 K, x1 = 0.4653 | 849.9
278.15 K, x1 = 0.5344 | 839.61
278.15 K, x1 = 0.6029 | 831.08
278.15 K, x1 = 0.6909 | 821.72
278.15 K, x1 = 0.726 | 818.36
278.15 K, x1 = 0.7999 | 812.56
279.15 K, x1 = 0.00089 | 999.26
279.15 K, x1 = 0.00146 | 998.87
279.15 K, x1 = 0.00269 | 997.99
279.15 K, x1 = 0.00403 | 997.08
279.15 K, x1 = 0.00513 | 996.35
279.15 K, x1 = 0.00761 | 994.79
279.15 K, x1 = 0.01405 | 991.37
280.15 K, x1 = 0.00089 | 999.22
280.15 K, x1 = 0.00146 | 998.83
280.15 K, x1 = 0.00269 | 997.95
280.15 K, x1 = 0.00403 | 997.04
280.15 K, x1 = 0.00513 | 996.31
280.15 K, x1 = 0.00761 | 994.76
280.15 K, x1 = 0.01051 | 993.13
280.15 K, x1 = 0.01405 | 991.32
280.15 K, x1 = 0.01793 | 989.57
280.15 K, x1 = 0.02241 | 987.69
280.15 K, x1 = 0.03005 | 985
280.15 K, x1 = 0.04242 | 981.35
280.15 K, x1 = 0.08929 | 961.26
281.15 K, x1 = 0.00089 | 999.17
281.15 K, x1 = 0.00146 | 998.78
281.15 K, x1 = 0.00269 | 997.9
281.15 K, x1 = 0.00403 | 996.99
281.15 K, x1 = 0.00513 | 996.26
281.15 K, x1 = 0.00761 | 994.7
281.15 K, x1 = 0.01405 | 991.25
282.15 K, x1 = 0.00089 | 999.1
282.15 K, x1 = 0.00146 | 998.72
282.15 K, x1 = 0.00269 | 997.84
282.15 K, x1 = 0.00403 | 996.93
282.15 K, x1 = 0.00513 | 996.19
282.15 K, x1 = 0.00761 | 994.63
282.15 K, x1 = 0.01405 | 991.16
283.15 K, x1 = 0.00089 | 999.02
283.15 K, x1 = 0.00146 | 998.63
283.15 K, x1 = 0.00269 | 997.76
283.15 K, x1 = 0.00403 | 996.85
283.15 K, x1 = 0.00513 | 996.12
283.15 K, x1 = 0.00761 | 994.57
283.15 K, x1 = 0.01405 | 991.06
288.15 K, x1 = 0.00089 | 998.43
288.15 K, x1 = 0.00146 | 998.04
288.15 K, x1 = 0.00269 | 997.17
288.15 K, x1 = 0.00403 | 996.26
288.15 K, x1 = 0.00513 | 995.52
288.15 K, x1 = 0.00761 | 993.96
288.15 K, x1 = 0.01405 | 990.35
288.15 K, x1 = 0.0248 | 985.26
288.15 K, x1 = 0.03494 | 981.48
288.15 K, x1 = 0.04241 | 978.77
288.15 K, x1 = 0.05218 | 974.85
288.15 K, x1 = 0.05887 | 971.81
288.15 K, x1 = 0.06973 | 966.34
288.15 K, x1 = 0.1125 | 943.7
288.15 K, x1 = 0.1566 | 922.09
288.15 K, x1 = 0.208 | 902.66
288.15 K, x1 = 0.2408 | 891.25
288.15 K, x1 = 0.3023 | 874
288.15 K, x1 = 0.3451 | 863.89
288.15 K, x1 = 0.4045 | 851.78
288.15 K, x1 = 0.4225 | 848.63
288.15 K, x1 = 0.4653 | 841.48
288.15 K, x1 = 0.5344 | 830.98
288.15 K, x1 = 0.6029 | 822.27
288.15 K, x1 = 0.6909 | 812.77
288.15 K, x1 = 0.726 | 809.38
288.15 K, x1 = 0.7999 | 803.46
288.15 K, x1 = 0.8711 | 797.8
288.15 K, x1 = 0.9183 | 794.66
298.15 K, x1 = 0.00089 | 996.39
298.15 K, x1 = 0.00146 | 996
298.15 K, x1 = 0.00269 | 995.11
298.15 K, x1 = 0.00403 | 994.19
298.15 K, x1 = 0.00513 | 993.44
298.15 K, x1 = 0.00761 | 991.84
298.15 K, x1 = 0.01405 | 988.08
298.15 K, x1 = 0.0248 | 982.45
298.15 K, x1 = 0.03494 | 977.97
298.15 K, x1 = 0.04241 | 974.54
298.15 K, x1 = 0.05218 | 969.58
298.15 K, x1 = 0.05887 | 965.94
298.15 K, x1 = 0.06973 | 959.94
298.15 K, x1 = 0.1125 | 936.18
298.15 K, x1 = 0.1566 | 914.18
298.15 K, x1 = 0.208 | 894.55
298.15 K, x1 = 0.2408 | 883.06
298.15 K, x1 = 0.3023 | 865.6
298.15 K, x1 = 0.3451 | 855.48
298.15 K, x1 = 0.4045 | 843.11
298.15 K, x1 = 0.4225 | 839.94
298.15 K, x1 = 0.4653 | 832.83
298.15 K, x1 = 0.5344 | 822.05
